Results reported in ChEMBL document CHEMBL1201862, “PubChem BioAssay data set” (2004).
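Step 1: Grow cells in 96-well plates. Step 2: Expose to compound for 48 hours at 5 concentrations. Step 3: Interpolate endpoints linearly; if unreached, use highest concentration. GI50 marks 50% less growth.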 Activity calls are given as the source filed them. Cut-off read from the data, not from the text of the source: active = GI50 up to about 1.1 µM and inactive = higher.

How the values were obtained:
Test in all cases: NCI tumour cell line growth inhibition, 48 h
A498 = test system: A498
A549 = test system: A549
ACHN = test system: ACHN
CAKI-1 = test system: CAKI-1
COLO 205 = test system: COLO 205
EKVX = test system: EKVX
HCT-15 = test system: HCT-15
K562 = test system: K562
KM12 = test system: KM12
MDA-N = test system: MDA-N
MOLT-4 = test system: MOLT-4
OVCAR-3 = test system: OVCAR-3
PC-3 = test system: PC-3
RPMI-8226 = test system: RPMI-8226
SF-295 = test system: SF-295
SN12C = test system: SN12C
SNB-19 = test system: SNB-19
SW-620 = test system: SW-620
U-251 = test system: U-251
UACC-62 = test system: UACC-62
786-0 = test system: 786-0
CCRF-CEM = test system: CCRF-CEM
DU-145 = test system: DU-145
HCT-116 = test system: HCT-116
HL-60 = test system: HL-60
HOP-92 = test system: HOP-92
HT-29 = test system: HT-29
Hs-578T = test system: Hs-578T
IGROV-1 = test system: IGROV-1
LOX IMVI = test system: LOX IMVI
M14 = test system: M14
MCF7 = test system: MCF7
MDA-MB-231 = test system: MDA-MB-231
MDA-MB-435 = test system: MDA-MB-435
Malme-3M = test system: Malme-3M
NCI-H226 = test system: NCI-H226
NCI-H23 = test system: NCI-H23
NCI-H460 = test system: NCI-H460
NCI-H522 = test system: NCI-H522
NCI/ADR-RES = test system: NCI/ADR-RES
OVCAR-4 = test system: OVCAR-4
OVCAR-5 = test system: OVCAR-5
OVCAR-8 = test system: OVCAR-8
RXF 393 = test system: RXF 393
SF-268 = test system: SF-268
SF-539 = test system: SF-539
SK-MEL-28 = test system: SK-MEL-28
SK-MEL-2 = test system: SK-MEL-2
SK-MEL-5 = test system: SK-MEL-5
SNB-75 = test system: SNB-75
SR = test system: SR
TK-10 = test system: TK-10
UACC-257 = test system: UACC-257
UO-31 = test system: UO-31

SMILES: Cc1cc2c(C(C)C)c(O)c(O)c(C=O)c2c(O)c1-c1c(C)cc2c(C(C)C)c(O)c(O)c(C=O)c2c1O
- GI50 (A498): 4.47 µM (inactive)
- GI50 (A549): 5.69 µM (inactive)
- GI50 (ACHN): 5.51 µM (inactive)
- GI50 (CAKI-1): 3.39 µM (inactive)
- GI50 (COLO 205): 4.35 µM (inactive)
- GI50 (EKVX): 1.32 µM (inactive)
- GI50 (HCT-15): 5.18 µM
- GI50 (K562): 2.16 µM (inactive)
- GI50 (KM12): 2.07 µM (inactive)
- GI50 (MDA-N): 87.7 µM (inactive)
- GI50 (MOLT-4): 2.24 µM (inactive)
- GI50 (OVCAR-3): 2.3 µM (inactive)
- GI50 (PC-3): 5.04 µM (inactive)
- GI50 (RPMI-8226): 4.38 µM (inactive)
- GI50 (SF-295): 2.81 µM (inactive)
- GI50 (SN12C): 6.14 µM (inactive)
- GI50 (SNB-19): 7.24 µM (inactive)
- GI50 (SW-620): 7.06 µM (inactive)
- GI50 (U-251): 3.52 µM (inactive)
- GI50 (UACC-62): 4.7 µM (inactive)

SMILES: C[C@]12CCC(O)CC1=CC[C@@H]1[C@@H]2CC[C@]2(C)C(O)[C@H](n3ccnc3)C[C@@H]12 (some centres undefined)
- GI50 (786-0): > 100 µM (inactive)
- GI50 (A498): > 100 µM (inactive)
- GI50 (A549): 81.7 µM (inactive)
- GI50 (ACHN): 62.2 µM (inactive)
- GI50 (CAKI-1): > 100 µM (inactive)
- GI50 (CCRF-CEM): 17.9 µM (inactive)
- GI50 (COLO 205): 47.4 µM (inactive)
- GI50 (DU-145): > 100 µM (inactive)
- GI50 (EKVX): > 100 µM (inactive)
- GI50 (HCT-116): 59.4 µM (inactive)
- GI50 (HCT-15): 69.2 µM
- GI50 (HL-60): 11.1 µM (inactive)
- GI50 (HOP-92): 20.2 µM (inactive)
- GI50 (HT-29): 8.17 µM (inactive)
- GI50 (Hs-578T): > 100 µM (inactive)
- GI50 (IGROV-1): > 100 µM (inactive)
- GI50 (K562): 12 µM (inactive)
- GI50 (KM12): 56.2 µM (inactive)
- GI50 (LOX IMVI): 39.2 µM (inactive)
- GI50 (M14): > 100 µM (inactive)
- GI50 (MCF7): 51.4 µM (inactive)
- GI50 (MDA-MB-231): > 100 µM (inactive)
- GI50 (MDA-MB-435): 75 µM (inactive)
- GI50 (MDA-N): 79.3 µM (inactive)
- GI50 (MOLT-4): 17.4 µM (inactive)
- GI50 (Malme-3M): > 100 µM (inactive)
- GI50 (NCI-H226): > 100 µM (inactive)
- GI50 (NCI-H23): 19.5 µM (inactive)
- GI50 (NCI-H460): 24.8 µM (inactive)
- GI50 (NCI-H522): 58.6 µM (inactive)
- GI50 (NCI/ADR-RES): > 100 µM (inactive)
- GI50 (OVCAR-3): 72.4 µM (inactive)
- GI50 (OVCAR-4): > 100 µM (inactive)
- GI50 (OVCAR-5): > 100 µM (inactive)
- GI50 (OVCAR-8): > 100 µM (inactive)
- GI50 (PC-3): 41.5 µM (inactive)
- GI50 (RPMI-8226): 22.4 µM (inactive)
- GI50 (RXF 393): 55.1 µM (inactive)
- GI50 (SF-268): > 100 µM (inactive)
- GI50 (SF-295): 52 µM (inactive)
- GI50 (SF-539): 64.1 µM (inactive)
- GI50 (SK-MEL-28): > 100 µM (inactive)
- GI50 (SK-MEL-2): 52.1 µM (inactive)
- GI50 (SK-MEL-5): 28.1 µM (inactive)
- GI50 (SN12C): > 100 µM (inactive)
- GI50 (SNB-19): 90.4 µM (inactive)
- GI50 (SNB-75): > 100 µM (inactive)
- GI50 (SR): 13.1 µM (inactive)
- GI50 (SW-620): > 100 µM (inactive)
- GI50 (TK-10): > 100 µM (inactive)
- GI50 (U-251): 52 µM (inactive)
- GI50 (UACC-257): 28.2 µM (inactive)
- GI50 (UACC-62): 77.1 µM (inactive)
- GI50 (UO-31): > 100 µM (inactive)
